Test results taken from patent publication US12226494B2, “Pharmaceutical compositions comprising Gd-complexes and polyarylene additives” (BRACCO IMAGING S.P.A., priority 2018, dated 2025).
“Also recorded” adds a separate entry of the source.

Experiments:
[1] = Proton Relaxation Enhancement (PRE) titration of ProHance with polyarylenes and reference compounds: Ka and Rb; type: binding; settings: for Rb/r1p: adduct with ProHance relative to free ProHance; for Ka: interaction with ProHance (1 mM), Hepes/NaCl; for Ka / Rb: T = 25° C., 21.5 MHz, pH = 7.0 ± 0.1; for Rb: relaxivity of the adduct with ProHance at saturation
Experimental: (§1) This method consists in measuring the variation in the longitudinal proton Relaxation Rates (R1=1/T1) of the paramagnetic solutions upon increasing the concentration of the interacting substrate. […] To this end, solutions of the Gd-complexes (1 mM) were titrated with the polyarylenes compounds and non-hydrophobic reference compounds (in the concentration range 1-40 mM, leading to the saturation of the contrast agent), at 21.5 MHz and 298 K, in Hepes/NaCl buffer solution ([hepes]=3.8 mM, [NaCl]=150 mM) at pH 7.0-7.2.
(§2) The reproducibility of the T data was ±0.5%.
The least-squares fit of the R1 versus substrate concentration binding isotherms (FIGS. 4 and 5) enabled us to calculate the affinity constants and the relaxivities of the adducts reported in tables 2 and 3 below.
Other aromatic-containing structures, beside HPTS, were considered for the interaction.

[2] = Longitudinal relaxivity r1p of the free Gd-complex (relaxometry, 21.5 MHz); type: physicochemical; settings: T = 25° C., B0 = 21.5 MHz, pH = 7.0 ± 0.1
Experimental: as §1, §2

[3] = Proton Relaxation Enhancement (PRE) titration of Gd-complexes (GBCA) with HPTS: binding parameters Ka and Rb; settings: for Ka: interaction of GBCA (1 mM) with HPTS, Hepes/NaCl; for Ka / Rb: T = 25° C., 21.5 MHz, pH = 7.0 ± 0.1; for Rb: relaxivity of the adduct with HPTS at saturation
Experimental: The binding parameters Ka and Rb between the investigated Gd-complexes and the polyarylene additives were calculated by using the well-established Proton Relaxation Enhancement (PRE) technique.
This method consists in measuring the variation in the longitudinal proton Relaxation Rates (R1=1/T1) of the paramagnetic solutions upon increasing the concentration of the interacting substrate. By this method, the binding parameters Ka (the affinity constant) and Rb (the relaxivity of the resulting adducts at saturation) can be determined. To this end, solutions of the Gd-complexes (1 mM) were titrated with the polyarylenes compounds and non-hydrophobic reference compounds (in the concentration range 1-40 mM, leading to the saturation of the contrast agent), at 21.5 MHz and 298 K, in Hepes/NaCl buffer solution ([hepes]=3.8 mM, [NaCl]=150 mM) at pH 7.0-7.2.
Relaxation rates were measured on a Stelar SpinMaster Relaxometer (Stelar, Mede, PV, It) operating at 21.5 MHz by means of the inversion recovery method (16 experiments, two scans). The reproducibility of the T data was ±0.5%.
Analysis of data was carried out by using origin 9.0 software.

[4] = 1H NMRD profiles of ProHance free and in the presence of 40 mM HPTS; type: physicochemical; settings: 1 mM ProHance with 40 mM HPTS vs ProHance as-such; 298 K; 0.01-70 MHz
Experimental: In order to investigate if the enhancement of the relaxivity is maintained at different magnetic field strength, the proton 1/T1 NMRD profiles were measured at 298 K on 1 mM ProHance solutions in the absence and in the presence of 40 mM HPTS. Measurements were carried out on a fast field-cycling Stelar relaxometer over a continuum of magnetic field strengths from 0.00024 to 0.47 T (corresponding to 0.01-20 MHz proton Larmor Frequency). The relaxometer operates under computer control with an absolute uncertainty in 1/T1 of ±0.1%. Additional data points in the range 21.5-70 MHz were obtained on the Stelar SpinMaster relaxometer. The concentration of the solutions used for the relaxometric characterization was determined according to a previously reported relaxometric method (Arena, F. et al, Bioconjugate Chem. 2011, 22, 2625-2635).
The analysis provides the evolution of the relaxivity of the two species as a function of the magnetic field.

[5] = tested on: TS/A breast cancer cells transplanted on Balb/c mice; settings: T1w MRI at 7.1T, injection of 0.15 mmol/Kg ProHance alone or with 0.45 mmol/Kg HPTS
Experimental: Mice were injected with 0.15 mmoles/kg of ProHance e 0.45 mmoles/kg of HPTS (corresponding to 150-220 μL for 20-30 g mice).
In vivo experiments were carried out on xenograpt murine models of cancer.
Female 10-12 weeks Balb/c mice (Charles River Laboratories, Calco, Italy) were inoculated subcutaneously in the flank with 0.1 mL of a suspension containing 5×10^5 TS/A mammary breast cancer cell lines (Nanni P. et al. Clin. Exp. Metastasis 1983, 1, 373-380).
For MRI acquisition, mice were anesthetized by intramuscular injection of a mixture of 20 mg/kg tiletamine/zolazepam (Zoletil 100, Virbac, Milan, Italy) 20 mg/kg plus 5 mg/kg xylazine (Rompun; Bayer, Milan, Italy). A permanent vein access was obtained by inserting a PE10 catheter into the tail vein.
MR images have been acquired, pre and post injection of GBCA, at 7.1T by using Bruker Avance 300 spectrometer equipped with a Micro 2.5 microimaging probe. Mice were injected with 0.15 mmol/Kg of ProHance followed (after 1 h when the wash-out of the GBCA was considered complete) by the injection of a mixture of ProHance and HPTS (0.15 mmol/Kg ProHance and 0.45 mmol/Kg HPTS).
Tumor volume and morphology were determined by multislices anatomical T2w images. A ROI was manually drawn and the slice volume was calculated. […]

Compound	Rb/r1p [1]	Ka [1]	Rb [1] [mM⁻¹ s⁻¹]	Ka [3]	further results
O=S(=O)(O)c1cccc2c(S(=O)(=O)O)cccc12 [1,5 NDS, 1,5 Naphthalene disulphonic acid]	1.4	45.5 M⁻¹	6.3	–	–
O=S(=O)(O)c1ccc(O)cc1 [HBSA, 4-Hydroxybenzenesulfonic acid]	–	No binding; also recorded: No interaction	–	–	–
COc1cc(S(=O)(=O)O)c2ccc3c(S(=O)(=O)O)cc(S(=O)(=O)O)c4ccc1c2c43 [MPTS, 8-Methoxy-1,3,6 pyrene trisulfonic acid]	1.4	514 M⁻¹	6.5	–	–
O=C(O)CN1CCN(CC(=O)O)CCN(C(CO)C(O)CO)CCN(CC(=O)O)CC1 (stereo not shown) [Gadovist, Gadobutrol]	–	–	–	1157 M⁻¹	r1p [2]: 5.0 mM⁻¹ s⁻¹; Rb [3]: 7.9 mM⁻¹ s⁻¹
O=C([O-])CN1CCNCCN(CC(=O)[O-])CCN(CC(=O)[O-])CC1.[Gd+3] [Gd-DO3A]	–	–	–	246 M⁻¹	r1p [2]: 6.2 mM⁻¹ s⁻¹; Rb [3]: 9.5 mM⁻¹ s⁻¹
O=C(O)COc1cc(S(=O)(=O)O)c2ccc3c(S(=O)(=O)O)cc(S(=O)(=O)O)c4ccc1c2c43 [CMPTS, 8-Carboxymethoxypyrene-1,3,6-trisulfonic acid]	1.8	94.2 M⁻¹	8.5	–	–
O=C(O)CN1CCN(CC(=O)O)CCN(CC(=O)O)CCN(CC(=O)O)CC1 [Dotarem]	–	–	–	174 M⁻¹	r1p [2]: 4.2 mM⁻¹ s⁻¹; Rb [3]: 7.4 mM⁻¹ s⁻¹
CNC[C@H](O)[C@@H](O)[C@H](O)[C@H](O)CO.CNC[C@H](O)[C@@H](O)[C@H](O)[C@H](O)CO.O=C([O-])CN(CCN(CC(=O)[O-])CC(=O)O)CCN(CC(=O)[O-])CC(=O)O.[Gd+3] [Magnevist]	–	–	–	no binding is observed; also recorded: No interaction	–
O=S(=O)(O)c1cc(O)c2ccc3c(S(=O)(=O)O)cc(S(=O)(=O)O)c4ccc1c2c34 [HPTS, 8-Hydroxypyrene-1,3,6-trisulfonic acid]	1.5	628 M⁻¹	6.9	–	–
O=S(=O)(O)c1cc(S(=O)(=O)O)c2ccc3c(O)cc(O)c4ccc1c2c43 [HPDS, 6,8-Dihydroxypyrene-1,3-disulfonic acid]	2.4	124 M⁻¹	10.9	–	–
Nc1cc(S(=O)(=O)O)c2ccc3c(S(=O)(=O)O)cc(S(=O)(=O)O)c4ccc1c2c43 [APTS, 8-Aminopyrene-1,3,6 trisulfonic acid]	1.6	319 M⁻¹	7.6	–	–
O=S(=O)(O)c1ccc2cc(S(=O)(=O)O)ccc2c1 [2,6 NDS, 2,6 Naphthalene disulphonic acid]	1.2	94.4 M⁻¹	5.4	–	–
O=S(=O)(O)c1cc(S(=O)(=O)O)c2ccc3c(S(=O)(=O)O)cc(S(=O)(=O)O)c4ccc1c2c43 [PTS, 1,3,6,8 Pyrenetetrasulfonic acid]	1.6	177 M⁻¹	7.3	–	–
CC(O)CN1CCN(CC(=O)O)CCN(CC(=O)O)CCN(CC(=O)O)CC1 (stereo not shown) [ProHance]	–	–	–	628 M⁻¹	r1p [2]: 4.6 mM⁻¹ s⁻¹; improvement of the relaxivity shown by the free complex ([3]; 20% of the complex in the form of a non-covalent adduct with HPTS): about 10%; improvement of the relaxivity shown by the free complex ([3]; 60% of the complex in the form of a non-covalent adduct with HPTS): ~30%; improvement of the relaxivity shown by the free complex ([3]; 99% of the complex in the form of a non-covalent adduct with HPTS): ~50%; improvement of relaxivity in comparison with Prohance as-such ([3]; molar ratio 1:3 of Prohance to HTPS): about 30%; Rb [3]: 6.9 mM⁻¹ s⁻¹; improvement of the relaxivity as a function of the magnetic field (NMRD profile) [4]: maintained over the whole range of magnetic field; mean signal enhancement, Enh %, in the tumor ROI [5]: 53%
CNC(=O)CN(CCN(CCN(CC(=O)[O-])CC(=O)NC)CC(=O)[O-])CC(=O)[O-].[Gd+3] [Omniscan]	–	–	–	no binding is observed; also recorded: No interaction	–
CNC[C@H](O)[C@@H](O)[C@H](O)[C@H](O)CO.CNC[C@H](O)[C@@H](O)[C@H](O)[C@H](O)CO.O=C([O-])CN(CCN(CC(=O)[O-])CC(=O)O)CCN(CC(=O)O)C(COCc1ccccc1)C(=O)[O-].[Gd+3] (stereo not shown) [MultiHance, gadobenate dimeglumine]	–	–	–	no binding is observed; also recorded: No interaction	–
